Patent US8334312B2, “Fungicidal mixtures for wood preservation” (LANXESS Deutschland GmbH, priority 2005, dated 2012)

Legend:
Assay in all cases: Mycelium radial growth inhibition on malt extract/peptone agar (MIC) and Kull synergism
Assay type in all cases: cell-based
Coriolus versicolor = details: for Qa = concentration of substance A which is the MIC: 26° C. agar; for Qb = concentration of substance B which is the MIC: b = triadimefon alone
Protocol: (§1) Mycelium pieces were punched out of colonies of the wood-destroying organisms Coriolus versicolor, Poria placenta, Gloeophyllum trabeum and Cornophora puteana and incubated at 26° C. on a malt extract/peptone-containing nutrient agar. Here, the growth of the fungal threads with and without added active compound was compared. The stated minimum inhibitory concentration (MIC) is the active compound concentration at which the radial growth of the fungal threads is suppressed completely. Using the method described by Kull et al. (F. C. Kull, […]. Mayer, Applied Microbiology 9, 538 to 541, 1961), the synergism was determined. Here, the following relations apply: […]

Gloeophyllum trabeum = test system: Gloeophyllum trabeum
Protocol: as §1

Poria placenta = details: 26° C. agar
Protocol: as §1

Coniophora puteana = details: 26° C. agar
Protocol: as §1

## CC(C)(C)C(O)(CCc1ccc(Cl)cc1)Cn1cncn1 (centres unmarked) [tebuconazole]
Coriolus versicolor; a = tebuconazole alone
  Qa = concentration of substance A which is the MIC: 0.3
Gloeophyllum trabeum; a = tebuconazole alone, 26° C. agar (Example 3)
  Qa = concentration of substance A which is the MIC: 0.5
Gloeophyllum trabeum; b = tebuconazole alone, 26° C. agar (Example 1)
  Qb = concentration of substance B which is the MIC: 0.7
Poria placenta; b = tebuconazole alone
  Qb = concentration of substance B which is the MIC: 1
Coniophora puteana; a = tebuconazole alone
  Qa = concentration of substance A which is the MIC: 6

## CC(C)(C)C(=O)C(Oc1ccc(Cl)cc1)n1cncn1 (racemic) [triadimefon, (±)-1-(4-chlorophenoxy)-3,3-dimethyl-1-(1H-1,2,4-triazol-1-yl)butan-2-one]
Coriolus versicolor; 26° C. agar (Example 2)
  Qb = concentration of substance B which is the MIC: 6
Coriolus versicolor; 26° C. agar (Example 3)
  Qb = concentration of substance B which is the MIC: 3
Gloeophyllum trabeum; b = triadimefon alone, 26° C. agar
  Qb = concentration of substance B which is the MIC: 30
Poria placenta; b = triadimefon alone
  Qb = concentration of substance B which is the MIC: 3
Coniophora puteana; b = triadimefon alone
  Qb = concentration of substance B which is the MIC: 30

## CCCC1COC(Cn2cncn2)(c2ccc(Cl)cc2Cl)O1 (centres unmarked) [propiconazole]
Coriolus versicolor; a = propiconazole alone
  Qa = concentration of substance A which is the MIC: 3
Poria placenta; a = propiconazole alone
  Qa = concentration of substance A which is the MIC: 1

## CC(C)(C)C(O)C(Oc1ccc(Cl)cc1)n1cncn1 (racemic) [triadimenol, (±)-1-(4-chlorophenoxy)-3,3-dimethyl-1-(1H-1,2,4-triazol-1-yl) butan-2-ole]
Gloeophyllum trabeum; a = triadimenol alone, 26° C. agar
  Qa = concentration of substance A which is the MIC: 1
Poria placenta; a = triadimenol alone
  Qa = concentration of substance A which is the MIC: 1
